The values below come from patent US11214803B2, “Modulators of YAP1 expression” (Ionis Pharmaceuticals, Inc., priority 2019, dated 2022).

Strand notation (5' to 3'): a small letter for the sugar, then the base; units joined by * are phosphorothioate-linked, units joined directly phosphodiester-linked; [ ] holds rarer units or linkages, { } end groups; capitals alone tell only the bases. k = constrained ethyl (cEt); [5mC] = 5-methylcytosine; d = 2'-deoxy (DNA)

Series [1] is described as follows: Tolerability in Balb/c mice, plasma chemistry markers (Example 10). The series is classed as in vivo. Particulars: male Balb/c mice, 50 mg/kg subcutaneously twice a week for four weeks, day 26. As to the method:
Balb/c mice were treated with modified oligonucleotides selected from studies described above and evaluated for changes in the levels of various plasma chemistry markers.
(§1) Groups of male Balb/c mice at 4-6 weeks of age (obtained from Taconic) were injected subcutaneously twice a week for four weeks (for a total of 8 treatments) with 50 mg/kg of modified oligonucleotides. One group of male Balb/c mice was injected with PBS. Mice were euthanized on day 26 post start of treatment (24 hours following the final administration).

Series [2] can be described thus: Tolerability in Balb/c mice, body and organ weights (Example 10). The series is classed as in vivo. Particulars: 50 mg/kg subcutaneously twice a week for four weeks, end of study. As to the method: as §1
Body weights of Balb/c mice were measured at the end of the study, and the average body weight for each group is presented in the table below. Modified oligonucleotides that caused any changes in organ weights outside the expected range for modified oligonucleotides were excluded from further studies.

Series [3] relates to Yap1 mRNA. Description: Dose-dependent inhibition of human Yap1 in A-431 cells (Example 6, 5,000 cells per well, RTS4814). Particulars: A-431 cells; for IC50: Yap1 mRNA, linear regression on a log/linear plot; for % UTC 148 nM / % UTC 444 nM / % UTC 1333 nM / % UTC 4000 nM: free uptake, approximately 48 hours, RTS4814. Format: cell-based. Summed up: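 A-431 cells (5,000/well) took up oligonucleotides by free uptake at various doses for about 48 h. Yap1 mRNA was measured by RT-PCR (RTS4814), normalised to RIBOGREEN total RNA and expressed as % untreated control; IC50 by linear regression on a log/linear plot.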

Series [4] relates to Yap1 mRNA. In words: Dose-dependent inhibition of human Yap1 in A-431 cells (Example 7, 10,000 cells per well, RTS36584). Particulars: free uptake; for Yap1 mRNA, % UTC: A-431 cells 10,000 cells per well, 48 hours. Format: cell-based. A digest of the protocol: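 A-431 cells at 10,000 per well received modified oligonucleotides by free uptake at several doses. After about 48 hours, Yap1 mRNA was quantified with primer-probe set RTS36584, normalized to RIBOGREEN total RNA and expressed as % untreated control. IC50 came from linear regression on a log/linear plot.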

In series [5] the test system is subcutaneous DEN carcinomas. In words: Tumor volume in DEN-HCC model, in combination with a-PD1 antibody (Example 49). Particulars: DEN-HCC subcutaneous model, C57BL/6 mice. The series is classed as in vivo, C57BL/6 mice. As to the method:
N-nitrosodiethylamine (DEN) is administered at 25 mg/kg into 15 day old C57/BL6 mice. Carcinomas form 6 months post injection. After formation, carcinomas were then dissected from the liver and passaged subcutaneously into C57BL/6 male mice at 4-6 weeks of age to establish a subcutaneous model. For this experiment, mice were passaged with P8 subcutaneously established DEN carcinomas, rendering P9 for the duration of the experiment. Subcutaneous carcinomas are found to form at 4-6 weeks post implantation. Modified oligonucleotides 792169 (control compound) and 715491 (YAP-1 targeting modified oligonucleotide) were treated subcutaneously into groups of 7-8 mice at 10 mg/kg/week 5 times a week for 11 weeks (total of 55 doses). The PBS-only treated group and the control group were treated 5 times a week for 4 weeks (total of 20 doses). α-PD1 antibody (BioXCell) was treated intraperitoneally at 10 mg/kg/week twice a week for 4 weeks (total of 8 doses). F.D. refers to mice that were sacrificed because their tumor volume became too large.

As to “715480 (kG*kG*kA*dA*dA*d[5mC]*d[5mC]*dA*dT*dT*dA*dT*dT*kA*k[5mC]*kT; antisense) [compound 715480]”, in series [1], the “ALT (U/L)” value is on record as 791 U/L, the “AST (U/L)” value was 439 U/L and the “TBIL” value stood at 0.15 mg/dL. In series [2], this substance came in with a Kidney weight of 0.34 g, a Liver weight of 1.64 g, a Spleen weight of 0.12 g and a body weight of 22 g. Further, in the series with Yap1 mRNA [3] (Table 53), the IC50 (commonly the concentration that gives 50% inhibition) was above 4 µM, the “% UTC 148 nM” value is on record as 91 % UTC, the “% UTC 444 nM” value amounted to 79 % UTC and the “% UTC 1333 nM” value amounted to 67 % UTC. Besides, the “% UTC 4000 nM” value in the series with Yap1 mRNA [3] (Table 53) is reported as 59 % UTC.
Consider “715484 (kT*kA*k[5mC]*dT*d[5mC]*dT*dT*dT*dG*dG*dA*dA*dA*k[5mC]*k[5mC]*kA; antisense) [compound 715484]”, for which, in series [1], the “ALT (U/L)” value is 116 U/L, the “AST (U/L)” value was found to be 110 U/L and the “TBIL” value stood at 0.15 mg/dL. In series [2], this substance came in with a Kidney weight of 0.37 g, a Liver weight of 1.47 g, a Spleen weight of 0.13 g and a body weight of 22 g.
In the case of “715491 (kA*kA*k[5mC]*d[5mC]*dA*dA*d[5mC]*dT*dA*dT*dT*dA*d[5mC]*kT*kT*k[5mC]) [compound 715491]”, in series [1], the “ALT (U/L)” value worked out at 33 U/L. Besides, in series [1], the “AST (U/L)” value is recorded as 48 U/L. Further, the “TBIL” value in series [1] was determined as 0.11 mg/dL. Besides, the “Yap1 mRNA, % UTC” value in the series with Yap1 mRNA [4] (Table 56, 15.6 nM) turned out to be 92 % UTC; in the series on Yap1 mRNA [4] (Table 56, 62.5 nM), 83 % UTC; in the series on Yap1 mRNA [4] (Table 56, 4000.00 nM), 28 % UTC. The same substance returned an IC50 with Yap1 mRNA [4] (Table 56, A-431 cells 10,000 cells per well) of 0.27 µM. In series [2], this substance displayed a Kidney weight of 0.32 g. Besides, in series [2], the Liver weight worked out at 1.03 g. The Spleen weight in series [2] was 0.12 g. The same substance came in with a body weight in series [2] of 22 g. Also, the “Average Tumor Volume” value is 356 mm3 in series [5] (day 1 on treatment); 417 mm3 in series [5] (day 5 on treatment); 463 mm3 in series [5] (day 8 on treatment); 461 mm3 in series [5] (day 11 on treatment); 523 mm3 in series [5] (day 15 on treatment); 526 mm3 in series [5] (day 18 on treatment). For the same substance, the “Average Tumor Volume” value in series [5] (day 23 on treatment) is 658 mm3; in series [5] (day 25 on treatment), 659 mm3; in series [5] (day 28 on treatment), 661 mm3; in series [5] (day 31 on treatment), 740 mm3; in series [5] (day 35 on treatment) it was 798 mm3; in series [5] (day 38 on treatment) it was 741 mm3. The “Average Tumor Volume” value in series [5] (day 43 on treatment) is listed as 723 mm3; in series [5] (day 45 on treatment), 741 mm3; in series [5] (day 49 on treatment), 765 mm3; in series [5] (day 54 on treatment), 780 mm3; in series [5] (day 58 on treatment), 852 mm3; in series [5] (day 61 on treatment) it was 925 mm3. Further, the “Average Tumor Volume” value in series [5] (day 65 on treatment) is 896 mm3; in series [5] (day 68 on treatment) it was 940 mm3; in series [5] (day 72 on treatment) it was 953 mm3; in series [5] (day 75 on treatment) it was 985 mm3; in series [5] (day 79 on treatment), 960 mm3.
As to “715557 (kG*kG*kA*dA*dG*dT*dT*dA*dT*dT*d[5mC]*dA*dG*k[5mC]*kA*kG; antisense) [compound 715557]”, in series [1], the “ALT (U/L)” value came to 1755 U/L, the “AST (U/L)” value was found to be 2377 U/L and the “TBIL” value is 0.28 mg/dL. Moreover, in series [2], the Kidney weight is on record as 0.31 g, the Liver weight is given as 1.96 g, the Spleen weight stood at 0.12 g and the body weight turned out to be 21 g.
“715558 (k[5mC]*kA*kG*dG*dA*dA*dG*dT*dT*dA*dT*dT*d[5mC]*kA*kG*k[5mC]; antisense) [compound 715558]”: in series [1], the “ALT (U/L)” value came to 65 U/L, the “AST (U/L)” value was found to be 91 U/L and the “TBIL” value turned out to be 0.16 mg/dL. Further, in series [2], the Kidney weight is 0.38 g, the Liver weight is listed as 1.33 g, the Spleen weight stood at 0.12 g and the body weight was found to be 22 g. For the same substance, in the series with Yap1 mRNA [3] (Table 54), the 50% inhibitory concentration (IC50) was above 4 µM, the “% UTC 148 nM” value was 94 % UTC, the “% UTC 444 nM” value worked out at 112 % UTC and the “% UTC 1333 nM” value is recorded as 80 % UTC. Further, the “% UTC 4000 nM” value with Yap1 mRNA [3] (Table 54) is 66 % UTC.
Turning to “715582 (kG*kT*k[5mC]*dA*dA*dG*d[5mC]*d[5mC]*dT*dG*dT*d[5mC]*dT*kG*kG*kA; antisense) [compound 715582]”, in series [1], the “ALT (U/L)” value is 2460 U/L, the “AST (U/L)” value is listed as 2320 U/L and the “TBIL” value was found to be 2.09 mg/dL. In series [2], this substance yielded a Kidney weight of 0.38 g, a Liver weight of 1.46 g, a Spleen weight of 0.16 g and a body weight of 22 g. Besides, in the series on Yap1 mRNA [3] (Table 54), the IC50 was above 4 µM, the “% UTC 148 nM” value came out at 98 % UTC, the “% UTC 444 nM” value is listed as 63 % UTC and the “% UTC 1333 nM” value came to 93 % UTC. In the series on Yap1 mRNA [3] (Table 54), the “% UTC 4000 nM” value was 70 % UTC.
As to “715593 (kA*kT*kT*dT*d[5mC]*dT*dT*dT*dG*dG*d[5mC]*dA*dG*kA*kG*kA; antisense) [compound 715593]”, in series [1], the “ALT (U/L)” value is 628 U/L, the “AST (U/L)” value was 610 U/L and the “TBIL” value was found to be 0.11 mg/dL. In series [2], the Kidney weight amounted to 0.30 g, the Liver weight amounted to 1.12 g, the Spleen weight stood at 0.13 g and the body weight is given as 19 g.
“715609 (kT*kG*kT*dG*dT*dA*dG*dG*d[5mC]*dT*dG*dA*d[5mC]*kT*kT*kA; antisense) [compound 715609]”: in series [1], the “ALT (U/L)” value is reported as 1120 U/L, the “AST (U/L)” value was 2941 U/L and the “TBIL” value was 0.67 mg/dL. In series [2], this substance displayed a Kidney weight of 0.33 g, a Liver weight of 2.64 g, a Spleen weight of 0.10 g and a body weight of 21 g.
